This note sets out measurements from patent US7592363B2, “Indazoles” (Wyeth, priority 2004, dated 2009).

For orientation: melting point means the temperature, or range, at which the solid turns liquid.

SMILES strings stand for the structures.

Compound `COC(=O)C[C@H]1CCCN(c2ccc(-c3c4cccc(C(F)(F)F)c4nn3Cc3c(F)cc(F)cc3F)cc2)C1` had a melting point of 103 °C.
`COC(=O)C[C@@H]1CCCN(c2ccc(-c3c4cccc(C(F)(F)F)c4nn3Cc3c(F)cc(F)cc3F)cc2)C1` showed a melting point of 103 °C.
The compound `CC1CCCN(c2ccc(-c3c4cccc(C(F)(F)F)c4nn3Cc3c(F)cc(F)cc3F)cc2)C1` (stereo not drawn) returned a melting point of 103 °C.
`COc1ccc(-c2c3cccc(C(F)(F)F)c3nn2C2CCC2)c(OC)c1` [Example 109, 2-CYCLOBUTYL-3-(2,4-DIMETHOXYPHENYL)-7-(TRIFLUOROMETHYL)-2H-INDAZOLE] displayed a melting point of 51 to 52 °C.
To `Fc1ccc(-c2c3cccc(C(F)(F)F)c3nn2Cc2c(F)cc(F)cc2F)cc1` [Example 139, 3-(4-FLUOROPHENYL)-2-(2,4,6-TRIFLUOROBENZYL)-7-(TRIFLUOROMETHYL)-2H-INDAZOLE] belongs 125 °C; to `COc1ccc(-c2c3cccc(C(F)(F)F)c3nn2CC(C)C)c(OC)c1` [Example 106, 3-(2,4-DIMETHOXYPHENYL)-2-ISOBUTYL-7-(TRIFLUOROMETHYL)-2H-INDAZOLE], 111 to 112 °C; to `COc1ccc(-c2c3cccc(C(F)(F)F)c3nn2CC2CCCCC2)c(OC)c1` [Example 107, 2-(CYCLOHEXYLMETHYL)-3-(2,4-DIMETHOXYPHENYL)-7-(TRIFLUOROMETHYL)-2H-INDAZOLE], 156 to 157 °C.
To `Fc1ccc(-c2c3cccc(N4CCCC4)c3nn2Cc2ccc(F)cc2F)cc1` [Example 426, 2-(2,4-DIFLUOROBENZYL)-3-(4-FLUOROPHENYL)-7-PYRROLIDIN-1-YL-2H-INDAZOLE] belongs 112 to 114 °C; to `CCC(CC)n1nc2c(C(F)(F)F)cccc2c1-c1ccc(OC)cc1OC` [Example 110, 3-(2,4-DIMETHOXYPHENYL)-2-(1-ETHYLPROPYL)-7-(TRIFLUOROMETHYL)-2H-INDAZOLE], 138 to 139 °C.
